Data reported in US12655116B2, “Substituted isophthalic acid diamides” (Bayer Aktiengesellschaft, priority 2020, dated 2026).

Experiments:
[1] = system: ABUTH; assay: Pre-emergence herbicidal action against ABUTH; type: in vivo, Abutilon theophrasti; conditions: Abutilon theophrasti, 504 h
Method in brief: (§1)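 Pre-emergence soil-surface spray of formulated compound (WP or EC; 600 to 800 l/ha; 0.2% wetting agent) over seeds sown in sandy loam. After 3 weeks under greenhouse conditions, damage is estimated visually in percent against untreated plants.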

[2] = system: ALOMY; assay: Pre-emergence herbicidal action against ALOMY; type: in vivo, Alopecurus myosuroides; conditions: Alopecurus myosuroides, 504 h; 80 g/ha, pre-emergence, scored visually after 3 weeks vs untreated controls (100% = plants have died, 0% = like control plants)
Method in brief: as §1

[3] = system: AMARE; assay: Pre-emergence herbicidal action against AMARE; type: in vivo, Amaranthus retroflexus; conditions: Amaranthus retroflexus, 504 h, scored visually after 3 weeks vs untreated controls, 100% = plants have died, 0% = like control plants
Method in brief: as §1

[4] = system: AVEFA; assay: Pre-emergence herbicidal action against AVEFA; type: in vivo, Avena fatua; conditions: Avena fatua, 504 h; 80 g/ha, pre-emergence
Method in brief: as §1

[5] = system: ECHCG; assay: Pre-emergence herbicidal action against ECHCG; type: in vivo, Echinochloa crus-galli; conditions: Echinochloa crus-galli, 504 h, 80 g/ha
Method in brief: as §1

[6] = system: LOLRI; assay: Pre-emergence herbicidal action against LOLRI; type: in vivo, Lolium rigidum; conditions: Lolium rigidum, 504 h, 80 g/ha
Method in brief: as §1

[7] = system: MATIN; assay: Pre-emergence herbicidal action against MATIN; type: in vivo, Matricaria inodora; conditions: Tripleurospermum inodorum, 504 h
Method in brief: as §1

[8] = system: PHBPU; assay: Pre-emergence herbicidal action against PHBPU; type: in vivo, Pharbitis purpurea; conditions: Ipomoea purpurea, 504 h, dosage 80 g/ha
Method in brief: as §1

[9] = system: POLCO; assay: Pre-emergence herbicidal action against POLCO; type: in vivo, Polygonum convolvulus; conditions: Fallopia convolvulus, 504 h, dosage 80 g/ha
Method in brief: as §1

[10] = system: SETVI; assay: Pre-emergence herbicidal action against SETVI; type: in vivo, Setaria viridis; conditions: Setaria viridis, 504 h, dosage 80 g/ha
Method in brief: as §1

[11] = system: STEME; assay: Pre-emergence herbicidal action against STEME; type: in vivo, Stellaria media; conditions: Stellaria media, 504 h
Method in brief: as §1

[12] = system: VERPE; assay: Pre-emergence herbicidal action against VERPE; type: in vivo, Veronica persica; conditions: Veronica persica, 504 h, dosage 80 g/ha
Method in brief: as §1

[13] = system: VIOTR; assay: Pre-emergence herbicidal action against VIOTR; type: in vivo, Viola tricolor; conditions: Viola tricolor, 504 h
Method in brief: as §1

[14] = system: DIGSA; assay: Pre-emergence herbicidal action against DIGSA; type: in vivo, Digitaria sanguinalis; conditions: Digitaria sanguinalis, 504 h
Method in brief: as §1

[15] = system: ABUTH; assay: Post-emergence herbicidal action against ABUTH; type: in vivo, Abutilon theophrasti; conditions: Abutilon theophrasti, 504 h, visual assessment about 3 weeks after treatment vs untreated controls
Method in brief: (§2)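 Greenhouse plants in sandy loam were sprayed at the one-leaf stage, 2 to 3 weeks after sowing, with WP or EC formulations as aqueous suspension or emulsion (600 to 800 l/ha water, 0.2% wetting agent). Visual damage was scored about 3 weeks later versus untreated controls, 0% = like control, 100% = dead.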

[16] = system: ALOMY; assay: Post-emergence herbicidal action against ALOMY; type: in vivo, Alopecurus myosuroides; conditions: Alopecurus myosuroides, 504 h, dosage 20 g/ha, visual assessment about 3 weeks after treatment vs untreated controls
Method in brief: as §2

[17] = system: AMARE; assay: Post-emergence herbicidal action against AMARE; type: in vivo, Amaranthus retroflexus; conditions: Amaranthus retroflexus, 504 h, 20 g/ha, visual assessment about 3 weeks after treatment, 100% = plants have died, 0% = like control plants
Method in brief: as §2

[18] = system: AVEFA; assay: Post-emergence herbicidal action against AVEFA; type: in vivo, Avena fatua; conditions: Avena fatua, 504 h, 20 g/ha, visual assessment about 3 weeks after treatment, 100% = plants have died, 0% = like control plants
Method in brief: as §2

[19] = system: ECHCG; assay: Post-emergence herbicidal action against ECHCG; type: in vivo, Echinochloa crus-galli; conditions: Echinochloa crus-galli, 504 h
Method in brief: as §2

[20] = system: HORMU; assay: Post-emergence herbicidal action against HORMU; type: in vivo, Hordeum murinum; conditions: Hordeum murinum, 504 h, dosage 20 g/ha
Experimental: Seeds of monocotyledonous and dicotyledonous weed and crop plants are laid out in sandy loam soil in wood-fiber pots, covered with soil and cultivated in a greenhouse under good growth conditions. 2 to 3 weeks after sowing, the test plants are treated at the one-leaf stage. The compounds of the invention, formulated in the form of wettable powders (WP) or as emulsion concentrates (EC), are then sprayed onto the green parts of the plants in the form of an aqueous suspension or emulsion at a water application rate equivalent to 600 to 800 l/ha, with addition of 0.2% wetting agent. After the test plants have been left to stand in the greenhouse under optimal growth conditions for about 3 weeks, the action of the preparations is assessed visually in comparison to untreated controls (herbicidal action in percent (%): 100% activity=the plants have died, 0% activity=like control plants). […] The tables below illustrate, in an illustrative manner, the post-emergence herbicidal action of the compounds of the invention, the herbicidal activity being stated in percent.

[21] = system: MATIN; assay: Post-emergence herbicidal action against MATIN; type: in vivo, Matricaria inodora; conditions: Tripleurospermum inodorum, 504 h, dosage 20 g/ha
Method in brief: as §2

[22] = system: PHBPU; assay: Post-emergence herbicidal action against PHBPU; type: in vivo, Pharbitis purpurea; conditions: Ipomoea purpurea, 504 h
Method in brief: as §2

[23] = system: SETVI; assay: Post-emergence herbicidal action against SETVI; type: in vivo, Setaria viridis; conditions: Setaria viridis, 504 h
Method in brief: as §2

[24] = system: STEME; assay: Post-emergence herbicidal action against STEME; type: in vivo, Stellaria media; conditions: Stellaria media, 504 h
Method in brief: as §2

[25] = system: VERPE; assay: Post-emergence herbicidal action against VERPE; type: in vivo, Veronica persica; conditions: Veronica persica, 504 h
Method in brief: as §2

[26] = system: VIOTR; assay: Post-emergence herbicidal action against VIOTR; type: in vivo, Viola tricolor; conditions: Viola tricolor, 504 h, 20 g/ha
Method in brief: as §2

[27] = system: DIGSA; assay: Post-emergence herbicidal action against DIGSA; type: in vivo, Digitaria sanguinalis; conditions: Digitaria sanguinalis, 504 h
Method in brief: as §2

Q: Which results are given for `CNC(=O)c1c(C(F)F)ccc(C(=O)Nc2nnnn2C)c1SC` [Example 1-87]?
A: pest or weed control at 80 g/ha ([1]; 80 g/ha, scored visually after 3 weeks vs untreated controls (100% = plants have died, 0% = like control plants)): 100%; pest or weed control at 20 g/ha ([1]; dosage 20 g/ha, scored visually after 3 weeks vs untreated controls, 100% = plants have died, 0% = like control plants, read-out: Pre-emergence action against ABUTH (herbicidal activity in percent)): 100%; pest or weed control at 80 g/ha [2]: 90%; pest or weed control at 20 g/ha ([3]; 20 g/ha): 90%; pest or weed control at 80 g/ha ([3]; 80 g/ha): 100%; pest or weed control at 80 g/ha [4]: 90%; pest or weed control at 80 g/ha [5]: 100%; pest or weed control at 80 g/ha [6]: 80%; pest or weed control at 20 g/ha ([7]; dosage 20 g/ha): 80%; pest or weed control at 80 g/ha ([7]; dosage 80 g/ha): 90%; pest or weed control at 80 g/ha [8]: 80%; pest or weed control at 80 g/ha [9]: 90%; pest or weed control at 80 g/ha [10]: 100%; pest or weed control at 20 g/ha ([11]; dosage 20 g/ha): 90%; pest or weed control at 80 g/ha ([11]; dosage 80 g/ha): 100%; pest or weed control at 80 g/ha [12]: 90%; pest or weed control at 20 g/ha ([13]; dosage 20 g/ha): 80%; pest or weed control at 80 g/ha ([13]; dosage 80 g/ha): 100%; pest or weed control at 20 g/ha ([14]; dosage 20 g/ha): 100%; pest or weed control at 80 g/ha ([14]; dosage 80 g/ha): 100%; pest or weed control at 5 g/ha ([15]; dosage 5 g/ha): 90%; pest or weed control at 20 g/ha ([15]; dosage 20 g/ha): 90%; pest or weed control at 20 g/ha [16]: 80%; pest or weed control at 20 g/ha [17]: 100%; pest or weed control at 20 g/ha [18]: 80%; pest or weed control at 5 g/ha ([19]; dosage 5 g/ha): 80%; pest or weed control at 20 g/ha ([19]; dosage 20 g/ha): 80%; pest or weed control at 20 g/ha [20]: 80%; pest or weed control at 20 g/ha [21]: 80%; pest or weed control at 5 g/ha ([22]; dosage 5 g/ha): 80%; pest or weed control at 20 g/ha ([22]; dosage 20 g/ha): 90%; pest or weed control at 5 g/ha ([23]; dosage 5 g/ha): 80%; pest or weed control at 20 g/ha ([23]; dosage 20 g/ha): 90%; pest or weed control at 20 g/ha ([24]; 20 g/ha): 100%; pest or weed control at 5 g/ha ([24]; dosage 5 g/ha): 80%; pest or weed control at 5 g/ha ([25]; 5 g/ha): 80%; pest or weed control at 20 g/ha ([25]; 20 g/ha): 90%; pest or weed control at 20 g/ha [26]: 80%; pest or weed control at 5 g/ha ([27]; 5 g/ha): 100%; pest or weed control at 20 g/ha ([27]; 20 g/ha): 100%
